# Results from patent US10227342B2 (ARIAD PHARMACEUTICALS, INC., priority 2014, dated 2019).
# Legend:
# Assay type in all cases: cell-based
# [1] = molecular target: human EGFR exon 20 insertion ASV (V769_D770insASV) (Homo sapiens (Human), UniProt P00533, INS769ASV); assay: Ba/F3-EGFR-Exon20-ASV cell anti-proliferative assay (CellTiter 96 MTS, 72 h); conditions: Ba/F3-EGFR-Exon20-ASV cells;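 further: Ba/F3 cells bearing the EGFR exon 20 ASV insertion, a line able to proliferate without IL-3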
# [2] = molecular target: human EGFR exon 20 insertion NPG (H773_V774insNPG) (Homo sapiens, UniProt P00533, INS773NPG, cells depend on it); assay: Ba/F3-EGFR-Exon20-NPG cell anti-proliferative assay (CellTiter 96 MTS, 72 h); conditions: read-out: EGFR exon 20 NPG insertion IC50
# Sequence of human EGFR exon 20 insertion NPG (H773_V774insNPG) (P00533 with tags, fused parts or gaps INS773NPG limits assumed): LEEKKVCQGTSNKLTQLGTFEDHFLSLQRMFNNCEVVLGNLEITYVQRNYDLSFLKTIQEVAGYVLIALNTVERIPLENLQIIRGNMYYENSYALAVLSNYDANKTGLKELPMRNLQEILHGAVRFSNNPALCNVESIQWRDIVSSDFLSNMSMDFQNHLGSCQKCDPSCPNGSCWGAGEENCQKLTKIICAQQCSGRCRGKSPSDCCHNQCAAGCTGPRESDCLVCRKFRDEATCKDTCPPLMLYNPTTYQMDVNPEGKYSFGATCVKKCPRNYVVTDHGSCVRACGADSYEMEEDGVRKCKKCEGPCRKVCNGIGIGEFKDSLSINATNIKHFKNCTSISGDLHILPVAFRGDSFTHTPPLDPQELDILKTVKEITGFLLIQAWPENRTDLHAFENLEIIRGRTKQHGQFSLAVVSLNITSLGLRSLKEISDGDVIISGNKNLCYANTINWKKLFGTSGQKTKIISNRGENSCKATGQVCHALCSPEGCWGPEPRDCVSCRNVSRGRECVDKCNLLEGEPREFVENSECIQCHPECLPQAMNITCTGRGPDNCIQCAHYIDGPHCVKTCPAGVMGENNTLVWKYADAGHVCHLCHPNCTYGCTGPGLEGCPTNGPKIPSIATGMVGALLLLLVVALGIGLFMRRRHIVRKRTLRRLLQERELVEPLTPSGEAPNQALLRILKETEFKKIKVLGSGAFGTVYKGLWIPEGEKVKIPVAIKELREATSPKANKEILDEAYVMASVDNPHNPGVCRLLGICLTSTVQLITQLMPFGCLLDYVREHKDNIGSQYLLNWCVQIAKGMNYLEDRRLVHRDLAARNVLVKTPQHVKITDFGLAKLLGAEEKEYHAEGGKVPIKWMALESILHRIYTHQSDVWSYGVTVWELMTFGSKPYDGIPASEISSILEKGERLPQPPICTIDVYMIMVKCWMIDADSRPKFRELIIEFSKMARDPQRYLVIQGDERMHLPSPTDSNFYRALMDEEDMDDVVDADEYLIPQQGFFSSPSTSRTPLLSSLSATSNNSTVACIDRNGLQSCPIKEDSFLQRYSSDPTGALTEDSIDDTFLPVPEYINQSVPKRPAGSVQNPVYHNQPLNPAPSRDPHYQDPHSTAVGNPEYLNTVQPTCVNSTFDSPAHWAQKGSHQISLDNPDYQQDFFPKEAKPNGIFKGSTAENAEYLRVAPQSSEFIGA
# Method: Ba/F3 cells expressing EGFR exon 20 insertions (named Ba/F3-EGFR-Exon20-NPG or Ba/F3-EGFR-Exon20-ASV) can proliferate in the absence of IL-3. The anti-proliferative activity of compounds were determined as follows: BaF3-EGFR-Exon20 cells (NPG or ASV) seeded in 96 well plates (2500 cells/well) were treated with test compound (dissolved in DMSO) at a series of concentrations (4-fold dilution, top concentration: 10,000 nM). The plates were incubated for 72 h in a 37° C. incubator with 5% CO2, and the number of viable cells in each well were measured indirectly by CellTiter 96® Aqueous One Solution Cell Proliferation Assay (Promega) This assay is a colorimetric method for determining the number of viable cells through measurement of their metabolic activity by detection of enzymatic conversion of tetrazolium salts into blue formazan derivatives. Reagent (20 μL) was added into each well, and the plates were returned to the incubator for 2 h. The absorbance in each well was then measured at 490 nm using an Envision plate reader (Perkin Elmer).
# [3] = molecular target: human EGFR E746-A750 deletion and T790M Mutation (DT) (Homo sapiens (Human), UniProt P00533, DEL746-750/T790M); assay: Ba/F3-EGFR-Del/T790M cell anti-proliferative assay (CellTiter 96 MTS, 72 h); conditions: Ba/F3-EGFR-Del/T790M cells; for IC50: read-out: EGFR exon 19 deletion and T790M mutation IC50
# Sequence of human EGFR E746-A750 deletion and T790M Mutation (DT) (P00533 other isoform, or with tags, fused parts or gaps T790M/del E746-A750): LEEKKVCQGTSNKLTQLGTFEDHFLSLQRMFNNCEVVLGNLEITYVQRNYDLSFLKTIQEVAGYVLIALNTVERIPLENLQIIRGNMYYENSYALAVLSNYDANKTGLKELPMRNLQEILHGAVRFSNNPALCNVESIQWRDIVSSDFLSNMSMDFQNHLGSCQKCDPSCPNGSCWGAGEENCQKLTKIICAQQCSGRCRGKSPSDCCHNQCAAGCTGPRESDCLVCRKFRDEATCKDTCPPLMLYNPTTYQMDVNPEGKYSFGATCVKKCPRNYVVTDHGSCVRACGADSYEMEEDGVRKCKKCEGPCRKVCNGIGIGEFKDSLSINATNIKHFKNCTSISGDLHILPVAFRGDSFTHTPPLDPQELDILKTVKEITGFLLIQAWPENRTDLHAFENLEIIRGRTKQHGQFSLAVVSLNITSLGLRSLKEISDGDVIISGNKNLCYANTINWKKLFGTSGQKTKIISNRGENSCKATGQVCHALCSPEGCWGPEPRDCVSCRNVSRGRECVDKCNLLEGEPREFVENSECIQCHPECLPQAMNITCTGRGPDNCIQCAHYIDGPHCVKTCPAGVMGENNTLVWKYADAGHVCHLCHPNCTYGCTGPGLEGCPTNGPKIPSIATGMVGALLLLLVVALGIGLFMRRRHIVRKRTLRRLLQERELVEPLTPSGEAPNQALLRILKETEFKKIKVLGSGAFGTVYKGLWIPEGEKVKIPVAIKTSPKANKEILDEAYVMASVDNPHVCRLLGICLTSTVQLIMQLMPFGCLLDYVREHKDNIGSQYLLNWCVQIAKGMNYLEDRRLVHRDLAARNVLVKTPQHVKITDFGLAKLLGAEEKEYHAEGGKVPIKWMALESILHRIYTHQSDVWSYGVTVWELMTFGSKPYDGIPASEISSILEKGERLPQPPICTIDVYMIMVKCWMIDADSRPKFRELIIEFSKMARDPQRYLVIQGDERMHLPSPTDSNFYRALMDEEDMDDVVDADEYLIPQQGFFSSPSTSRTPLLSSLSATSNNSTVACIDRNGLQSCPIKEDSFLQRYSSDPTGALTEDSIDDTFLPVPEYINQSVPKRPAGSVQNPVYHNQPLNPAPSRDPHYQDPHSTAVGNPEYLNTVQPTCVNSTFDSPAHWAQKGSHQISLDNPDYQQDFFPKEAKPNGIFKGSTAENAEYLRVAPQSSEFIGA
# Method: An expression vector, pLVX-IRES puro (Clontech) coding for human EGFR E746-A750 deletion and T790M Mutation, was transfected into HEK293 cells by the Trans-Lentiviral ORF Packaging System (Thermo Scientific), to produce virus encoding EGFR exon 19 deletion and T790M mutations. […] Ba/F3 cells expressing EGFR E746-A750 deletion and T790M Mutation (named Ba/F3-EGFR-Del/T790M) can proliferate in the absence of IL-3. The anti-proliferative activity of compounds was determined as follows: BaF3-EGFR-Del/T790M cells seeded in 96 well plates (2500 cells/well) were treated with test compound (dissolved in DMSO) at a series of concentrations (4-fold dilution, top concentration: 10,000 nM). The plates were incubated for 72 h in a 37° C. incubator with 5% CO2, and the number of viable cells in each well were measured indirectly by CellTiter 96® Aqueous One Solution Cell Proliferation Assay (Promega; this assay is a colorimetric method for determining the number of viable cells through measurement of their metabolic activity by detection of enzymatic conversion of tetrazolium salts into blue formazan derivatives). Reagent (20 μL) was added into each well, and the plates were returned to the incubator for 2 h. The absorbance in each well was then measured at 490 nm using an Envision plate reader (Perkin Elmer).
# [4] = molecular target: Her2 exon 20 YVMA insertion (A775_G776ins YVMA) (Homo sapiens (Human), UniProt P04626, INS775YVMA); assay: Ba/F3-Her2 Exon20 YVMA cell anti-proliferative assay (CellTiter 96 MTS, 72 h); conditions: Ba/F3-Her2 Exon20 YVMA cells
# Sequence of Her2 exon 20 YVMA insertion (A775_G776ins YVMA) (P04626 other isoform, or with tags, fused parts or gaps ins YVMA behind 775): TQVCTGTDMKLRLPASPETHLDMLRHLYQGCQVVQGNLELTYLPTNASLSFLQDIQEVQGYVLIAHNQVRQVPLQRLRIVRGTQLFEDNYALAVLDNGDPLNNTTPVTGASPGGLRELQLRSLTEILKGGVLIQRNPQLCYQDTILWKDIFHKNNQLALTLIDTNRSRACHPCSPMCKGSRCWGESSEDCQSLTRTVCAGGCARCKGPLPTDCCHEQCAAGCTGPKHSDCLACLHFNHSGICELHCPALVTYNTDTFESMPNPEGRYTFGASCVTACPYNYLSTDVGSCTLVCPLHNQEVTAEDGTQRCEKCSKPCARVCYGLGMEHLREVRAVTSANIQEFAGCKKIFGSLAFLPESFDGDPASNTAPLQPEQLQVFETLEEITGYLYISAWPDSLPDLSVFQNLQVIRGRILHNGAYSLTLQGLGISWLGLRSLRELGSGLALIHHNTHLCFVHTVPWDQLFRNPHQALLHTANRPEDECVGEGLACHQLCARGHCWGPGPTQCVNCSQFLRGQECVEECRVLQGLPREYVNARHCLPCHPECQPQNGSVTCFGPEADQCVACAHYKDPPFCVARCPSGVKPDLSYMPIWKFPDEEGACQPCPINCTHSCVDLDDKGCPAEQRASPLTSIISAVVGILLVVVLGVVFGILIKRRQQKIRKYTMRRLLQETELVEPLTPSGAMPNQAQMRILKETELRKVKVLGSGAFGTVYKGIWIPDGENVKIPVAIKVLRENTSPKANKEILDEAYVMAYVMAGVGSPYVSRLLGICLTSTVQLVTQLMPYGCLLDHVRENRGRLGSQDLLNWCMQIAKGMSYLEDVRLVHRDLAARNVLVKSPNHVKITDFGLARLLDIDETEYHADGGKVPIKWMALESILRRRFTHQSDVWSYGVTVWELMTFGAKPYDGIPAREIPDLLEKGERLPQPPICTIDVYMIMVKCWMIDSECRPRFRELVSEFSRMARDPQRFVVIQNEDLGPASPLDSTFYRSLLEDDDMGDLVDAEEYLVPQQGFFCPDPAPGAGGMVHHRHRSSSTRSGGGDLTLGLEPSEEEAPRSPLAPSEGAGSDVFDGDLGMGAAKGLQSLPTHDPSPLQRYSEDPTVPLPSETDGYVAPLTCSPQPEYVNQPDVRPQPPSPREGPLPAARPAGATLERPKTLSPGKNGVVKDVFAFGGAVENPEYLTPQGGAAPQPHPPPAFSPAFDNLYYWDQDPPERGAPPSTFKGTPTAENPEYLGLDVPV
# Excerpt: Ba/F3 cells expressing Her2 Exon20 YVMA insertions (named Ba/F3-Her2 Exon20 YVMA) can proliferate in the absence of IL-3.
# Sequence of human EGFR exon 20 insertion ASV (V769_D770insASV) (P00533 other isoform, or with tags, fused parts or gaps ins ASV behind 769): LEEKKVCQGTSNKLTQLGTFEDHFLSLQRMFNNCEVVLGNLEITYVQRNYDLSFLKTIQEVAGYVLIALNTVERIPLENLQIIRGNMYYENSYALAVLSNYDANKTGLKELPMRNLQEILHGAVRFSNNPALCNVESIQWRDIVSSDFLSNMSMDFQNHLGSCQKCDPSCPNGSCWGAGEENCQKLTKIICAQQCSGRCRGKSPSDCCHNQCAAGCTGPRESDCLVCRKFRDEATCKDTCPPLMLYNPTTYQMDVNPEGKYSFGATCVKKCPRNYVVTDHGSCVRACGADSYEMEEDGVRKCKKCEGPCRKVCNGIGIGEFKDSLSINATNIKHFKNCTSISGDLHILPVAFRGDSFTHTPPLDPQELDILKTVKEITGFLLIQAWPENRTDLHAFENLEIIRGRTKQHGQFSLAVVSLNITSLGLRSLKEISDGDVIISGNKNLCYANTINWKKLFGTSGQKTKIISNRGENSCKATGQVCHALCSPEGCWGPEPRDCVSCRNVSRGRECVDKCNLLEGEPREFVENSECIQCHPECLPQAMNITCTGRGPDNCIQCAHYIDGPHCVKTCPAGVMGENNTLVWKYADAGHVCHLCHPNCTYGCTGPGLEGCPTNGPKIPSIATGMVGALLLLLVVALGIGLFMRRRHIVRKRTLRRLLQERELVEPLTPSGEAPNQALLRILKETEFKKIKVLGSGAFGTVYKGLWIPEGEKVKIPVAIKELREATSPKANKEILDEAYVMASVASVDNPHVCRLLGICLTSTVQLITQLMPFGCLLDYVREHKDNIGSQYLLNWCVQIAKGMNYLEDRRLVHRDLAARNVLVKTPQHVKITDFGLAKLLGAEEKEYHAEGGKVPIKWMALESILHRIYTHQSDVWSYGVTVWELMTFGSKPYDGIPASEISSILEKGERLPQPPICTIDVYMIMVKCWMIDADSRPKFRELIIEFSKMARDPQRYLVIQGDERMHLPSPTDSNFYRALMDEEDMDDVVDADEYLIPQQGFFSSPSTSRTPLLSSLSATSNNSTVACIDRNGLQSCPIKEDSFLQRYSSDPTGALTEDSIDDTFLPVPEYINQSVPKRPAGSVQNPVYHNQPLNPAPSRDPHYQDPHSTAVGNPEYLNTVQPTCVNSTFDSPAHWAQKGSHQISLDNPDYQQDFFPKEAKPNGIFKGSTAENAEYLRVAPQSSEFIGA
SMILES,IC50 [1] [nM],IC50 [2] [nM],IC50 [3] [nM],IC50 [4] [nM],EGFR exon 19 deletion and T790M mutation IC50 [3]
"C=CC(=O)Nc1cc(Nc2ncc(C(=O)OC(C)C)c(-c3cnc4ccccn34)n2)c(OC)cc1N(C)CCN(C)C [Example 94, isopropyl 2-((5-acrylamido-4-((2-(dimethylamino)ethyl)(methyl)amino)-2-methoxyphenyl)amino)-4-(imidazo[1,2-a]pyridin-3-yl)pyrimidine-5-carboxylate]",< 100,< 100,< 100,< 100,–
"C=CC(=O)Nc1ccc(OC)c(Nc2ncc(C#N)c(-c3cn(C)c4cc(OCCC5CCCN5C)ccc34)n2)c1 (stereo not drawn) [Example 23, N-(3-((5-cyano-4-(1-methyl-6-(2-(1-methylpyrrolidin-2-yl)ethoxy)-1H-indol-3-yl)pyrimidin-2-yl)amino)-4-methoxyphenyl)acrylamide]",100 to 500,< 100,< 100,500 to 1000,–
"C=CC(=O)Nc1cc(Nc2ncc(C(=O)OC(C)C)c(-n3ccc4ccccc43)n2)c(OC)cc1N(C)C[C@H]1CCCN1C [Example 61, isopropyl (R)-2-((5-acrylamido-2-methoxy-4-(methyl((1-methylpyrrolidin-2-yl)methyl)amino)phenyl)amino)-4-(1H-indol-1-yl)pyrimidine-5-carboxylate]",< 100,< 100,< 100,100 to 500,–
"C=CC(=O)Nc1cc(Nc2ncc(C(=O)OCC(C)C)c(-c3cn(C)c4ccccc34)n2)c(OC)cc1N(C)CCN(C)C [Example 28, isobutyl 2-((5-acrylamido-4-((2-(dimethylamino)ethyl)(methyl)amino)-2-methoxyphenyl)amino)-4-(1-methyl-1H-indol-3-yl)pyrimidine-5-carboxylate]",< 100,< 100,< 100,100 to 500,–
"C=CC(=O)Nc1cc(Nc2nccc(-c3c(-c4cncc(Cl)c4)n(C)c4ccccc34)n2)c(OC)cc1N(C)CCN(C)C [Example 6, N-(5-((4-(2-(5-chloropyridin-3-yl)-1-methyl-1H-indol-3-yl)pyrimidin-2-yl)amino)-2-((2-(dimethylamino)ethyl)(methyl)amino)-4-methoxyphenyl)acrylamide]",< 100,< 100,< 100,100 to 500,–
"C=CC(=O)Nc1cc(Nc2ncc(Cl)c(-c3cnn4ccccc34)n2)c(OC)cc1OCCN(C)C [Example 51, N-(5-((5-chloro-4-(pyrazolo[1,5-a]pyridin-3-yl)pyrimidin-2-yl)amino)-2-(2-(dimethylamino)ethoxy)-4-methoxyphenyl)acrylamide]",100 to 500,< 100,< 100,100 to 500,–
"C=CC(=O)Nc1cc(Nc2ncc(C(=O)OC)c(-c3cn(C)c4ccccc34)n2)c(OC)cc1C#CCN(C)C [Example 68, methyl 2-((5-acrylamido-4-(3-(dimethylamino)prop-1-yn-1-yl)-2-methoxyphenyl)amino)-4-(1-methyl-1H-indol-3-yl)pyrimidine-5-carboxylate]",100 to 500,< 100,< 100,500 to 1000,–
"C=CC(=O)Nc1ccc(OC)c(Nc2ncc(Cl)c(-c3c[nH]c4cc(OCCN5CCCC5)ccc34)n2)c1 [Example 22, N-(3-((5-chloro-4-(6-(2-(pyrrolidin-1-yl)ethoxy)-1H-indol-3-yl)pyrimidin-2-yl)amino)-4-methoxyphenyl)acrylamide]",100 to 500,< 100,< 100,100 to 500,–
"C=CC(=O)Nc1cc(Nc2ncc(NC(=O)C(C)(C)C)c(-c3cn(C)c4ccccc34)n2)c(OC)cc1N(C)CCN(C)C [Example 41, N-(2-((2-(dimethylamino)ethyl)-(methyl)amino)-4-methoxy-5-((4-(1-methyl-1H-indol-3-yl)-5-pivalamidopyrimidin-2-yl)amino)phenyl)acrylamide]",500 to 1000,100 to 500,> 1000,> 1000,–
"C=CC(=O)Nc1cc(Nc2ncc(C(=O)OC)c(-c3cn(C)c4ccccc34)n2)c(OC)cc1CCCN(C)C [Example 69, methyl 2-((5-acrylamido-4-(3-(dimethylamino)propyl)-2-methoxyphenyl)amino)-4-(1-methyl-1H-indol-3-yl)pyrimidine-5-carboxylate]",100 to 500,< 100,< 100,500 to 1000,–
"C=CC(=O)Nc1cc(Nc2ncc(C(=O)OC(C)C)c(-c3cn(C)c4c(OC)cccc34)n2)c(OC)cc1N(C)CCN(C)C [Example 31, isopropyl 2-((5-acrylamido-4-((2-(dimethylamino)ethyl)(methyl)amino)-2-methoxyphenyl)amino)-4-(7-methoxy-1-methyl-1H-indol-3-yl)pyrimidine-5-carboxylate]",< 100,< 100,< 100,< 100,–
"C=CC(=O)Nc1cc(Nc2ncc(C(=O)OC(C)C)c(-n3ccc4ccccc43)n2)c(OC)cc1N(C)CCN(C)C [Example 15, isopropyl 2-((5-acrylamido-4-((2-(dimethylamino)ethyl)(methyl)amino)-2-methoxyphenyl)amino)-4-(1H-indol-1-yl)pyrimidine-5-carboxylate]",< 100,< 100,< 100,< 100,–
"C=CC(=O)Nc1cc(Nc2ncc(NC(=O)CC)c(-c3nn(C)c4ccccc34)n2)c(OC)cc1N(C)CCN(C)C [Example 60, N-(2-((2-(dimethylamino)ethyl)(methyl)amino)-4-methoxy-5-((4-(1-methyl-1H-indazol-3-yl)-5-propionamidopyrimidin-2-yl)amino)phenyl)acrylamide]",< 100,< 100,< 100,> 1000,–
"C=CC(=O)Nc1cc(Nc2ncnc(-c3c(C4CCOCC4)n(C)c4ccccc34)n2)c(OC)cc1N(C)CCN(C)C [Example 4, N-(2-((2-(dimethylamino)ethyl)(methyl)amino)-4-methoxy-5-((4-(1-methyl-2-(tetrahydro-2H-pyran-4-yl)-1H-indol-3-yl)-1,3,5-triazin-2-yl)amino)phenyl)acrylamide]",100 to 500,< 100,–,100 to 500,B (Group B compounds have an IC50 value for the indicated mutant between about 100 to about 500 nM)
"C=CC(=O)Nc1ccc(OC)c(Nc2ncc(C#N)c(-c3cn(C)c4cc(OCC5CCCN5C)ccc34)n2)c1 (stereo not drawn) [Example 21, N-(3-((5-cyano-4-(1-methyl-6-((1-methylpyrrolidin-2-yl)methoxy)-1H-indol-3-yl)pyrimidin-2-yl)amino)-4-methoxyphenyl)acrylamide]",500 to 1000,< 100,< 100,500 to 1000,–
"C=CC(=O)Nc1cc(Nc2nccc(-c3cn(C)c4ccccc34)n2)c(OC)cc1N(C)CCNC [Example 57, N-(4-methoxy-2-(methyl(2-(methylamino)ethyl)amino)-5-((4-(1-methyl-1H-indol-3-yl)pyrimidin-2-yl)amino)phenyl)acrylamide]",100 to 500,< 100,–,100 to 500,–
"C=CC(=O)Nc1cc(Nc2ncnc(-c3c(C4=CCOCC4)n(C)c4ccccc34)n2)c(OC)cc1N(C)CCN(C)C [Example 2, N-(5-((4-(2-(3,6-dihydro-2H-pyran-4-yl)-1-methyl-1H-indol-3-yl)-1,3,5-triazin-2-yl)amino)-2-((2-(dimethylamino)ethyl)(methyl)amino)-4-methoxyphenyl)acrylamide]",< 100,< 100,< 100,100 to 500,–
"C=CC(=O)Nc1cc(Nc2ncc(NC(=O)C(C)(C)C)c(-c3cn(C)c4ccccc34)n2)c(OC)cc1OC [Example 42, N-(2,4-dimethoxy-5-((4-(1-methyl-1H-indol-3-yl)-5-pivalamidopyrimidin-2-yl)amino)phenyl)acrylamide]",> 1000,> 1000,> 1000,> 1000,–
"C=CC(=O)Nc1cc(Nc2ncc(C(=O)OC3CN(C)C3)c(-c3cn(C)c4ccccc34)n2)c(OC)cc1N(C)CCN(C)C [Example 12, 1-methylazetidin-3-yl 2-((5-acrylamido-4-((2-(dimethylamino)ethyl)(methyl)amino)-2-methoxyphenyl)amino)-4-(1-methyl-1H-indol-3-yl)pyrimidine-5-carboxylate]",> 1000,> 1000,> 1000,> 1000,–
"C=CC(=O)Nc1cc(Nc2ncc(Cl)c(-c3cn(C)c4c5c(ccc34)CCC5)n2)c(OC)cc1N(C)CCN(C)C [Example 43, N-(5-((5-chloro-4-(1-methyl-1,6,7,8-tetrahydrocyclopenta[g]indol-3-yl)pyrimidin-2-yl)amino)-2-((2-(dimethylamino)ethyl)(methyl)amino)-4-methoxyphenyl)acrylamide]",–,< 100,< 100,100 to 500,–
"C=CC(=O)Nc1cc(Nc2ncc(Cl)c(-c3cnn4ccccc34)n2)c(OC)cc1N(C)CCN1CCN(C)CC1 [Example 27, N-(5-((5-chloro-4-(pyrazolo[1,5-a]pyridin-3-yl)pyrimidin-2-yl)amino)-4-methoxy-2-(methyl(2-(4-methylpiperazin-1-yl)ethyl)amino)phenyl)acrylamide]",–,500 to 1000,< 100,> 1000,–
